Data published in PubChem BioAssay (NCI).
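Tested at 5 concentrations; 48 h exposure; 96-well plates; endpoints linearly interpolated, else capped at highest concentration. At the GI50, growth is halved. TGI marks complete inhibition of growth.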

Assays:
Assay in all cases: growth of human tumour cells (NCI), 48 h
[1] = test system: A498 renal
[2] = test system: ACHN renal
[3] = test system: CAKI-1 renal
[4] = test system: COLO 205 colon
[5] = test system: HCC-2998 colon
[6] = test system: HCT-15 colon
[7] = test system: LOX IMVI melanoma
[8] = test system: SN12C renal
[9] = test system: SW-620 colon
[10] = test system: U251 CNS

SMILES	GI50 [1] [µM]	TGI [1] [µM]	GI50 [2] [µM]	TGI [2] [µM]	GI50 [3] [µM]	TGI [3] [µM]	GI50 [4] [µM]	TGI [4] [µM]	GI50 [5] [µM]	TGI [5] [µM]	GI50 [6] [µM]	TGI [6] [µM]	GI50 [7] [µM]	TGI [7] [µM]	GI50 [8] [µM]	TGI [8] [µM]	GI50 [9] [µM]	TGI [9] [µM]	GI50 [10] [µM]	TGI [10] [µM]
COc1cc(OC)cc(Oc2cnc3cc(N)cc(N)c3n2)c1	11.8	39.9	15.8	33.3	13	27.7	14	37.5	14.6	28.8	18.3	45.1	11.5	24	15.8	29.3	18.6	43.7	15.5	28.8
COC(=O)[C@H](CC(C)C)NC(=O)[C@H](Cc1ccccc1)N1CC2C=CC1C2 (stereo not given in full)	–	> 100	–	> 100	–	> 100	–	> 100	–	> 100	–	> 100	–	> 100	–	> 100	–	> 100	–	> 100
CC1(C)CC(=O)C=C(/C=C/Sc2c(Cl)c(Cl)nc(Cl)c2Cl)C1	21.7	36.6	11.1	23.3	2.23	5.4	17.2	31.3	9.46	21.3	5.64	23	3.26	12.9	4.56	16.3	11.8	32.7	14.8	28.5
COc1cccc(C=O)c1C(=O)c1cc(O)ccc1O	–	> 63.7	–	31.1	–	> 57.4	–	34.1	–	> 100	–	41.3	–	> 74	–	> 100	–	33.2	–	> 100
CCN1CCC(CC(=O)Nc2n[nH]c3nnc(-c4cccc(F)c4F)cc23)CC1	2.84	> 25	> 25	> 25	> 25	> 25	22.3	> 25	> 25	> 25	> 25	> 25	> 25	> 25	> 25	> 25	> 25	> 25	21.2	> 25
O=C1C=C(Nc2ccccc2C(=O)CC(=O)C(=O)Nc2ccc(Cl)cc2)c2ccccc2C1=O	–	> 100	–	55.1	–	> 83.4	–	34.5	–	35.8	–	24.8	–	4.98	–	26	–	27	–	68.2
Cc1cc(=O)[nH]c(CNC(=O)c2ccc3ccccc3c2)n1	–	> 100	–	> 100	–	> 100	–	> 100	–	> 100	–	> 100	–	> 100	–	> 100	–	> 100	–	> 100
COC1=CC(c2ccc[nH]2)=N/C1=C\c1[nH]c(C)c(C(=O)CCC(=O)Oc2ccc3c(c2)CCC2C3CC[C@]3(C)[C@@H](O)CC[C@@H]23)c1C (stereo not given in full)	1.87	8.82	1.94	6.7	2.38	> 100	5.15	> 100	4.05	> 100	1.29	4.18	0.797	2.57	5.06	> 100	0.816	5.14	2.99	28.4
COC(=O)[C@H]1COC(=S)N1C(=O)[C@@H](C)[C@H](O)C(C)C	–	> 100	–	> 100	–	> 100	–	> 100	–	> 100	–	> 100	–	> 100	–	> 100	–	> 100	–	> 100
COC(=O)c1cc(NC(=O)c2cc(NC(=O)c3cc([N+](=O)[O-])n(C)c3)cn2C)cn1C	84	> 100	2.53	53.5	> 100	> 100	45.9	> 100	4.26	38.2	44.8	> 100	10.7	85.9	> 100	> 100	> 100	> 100	32.7	> 100
